According to patent publication US6942966B1, “Methods for processing chemical compounds having reactive functional groups” (ISIS Pharmaceuticals, Inc., priority 1995, dated 2005):

Target: T1, human type II PLA2 (Homo sapiens, UniProt P14555)
T1 construct: made in house; host or cells: baculovirus system
T1 sequence (P14555 21-144): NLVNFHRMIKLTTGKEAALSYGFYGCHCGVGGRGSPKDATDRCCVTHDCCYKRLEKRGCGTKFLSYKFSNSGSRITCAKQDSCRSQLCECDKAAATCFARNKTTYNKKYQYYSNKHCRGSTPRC
Test: E. coli PLA2 assay (3H-oleic acid labeled E. coli as substrate)
Assay type: biochemical
Conditions: compounds 33 and 34 assayed as a mixture at 100 μM, 50 μM, and 10 μM (final concentration)
Excerpt: After each round of synthesis as described in the above examples, the resulting pools of compounds are screened for inhibition of human type II PLA2 enzymatic activity. The assay is effected at the conclusion of each round of synthesis to identify the wining pool from that round of synthesis. Concurrently, the libraries additionally can be screened in other in vitro assays to determine further mechanisms of inhibition.
The pools of the macrocyclic libraries are screened for inhibition of PLA2 in the assay using E. coli labeled with ^3H-oleic acid (Franson et al., J. Lipid Res. 1974, 15, 380; and Davidson et al., J. Biol. Chem. 1987, 262, 1698) as the substrate. Type II PLA2 (originally isolated from synovial fluid), expressed in a baculovirus system and partially purified, serves as a source of the enzyme. […] 165 μl of each supernate is then put into a scintillation vial containing 6 ml of scintillant (Scintiverse) and cpms are measured in a Beckman Liquid Scintillation Counter. […]
The compounds were assayed as a mixture at 100 μM, 50 μM, and 10 μM (final concentration). […] Duplicate assay values were averaged, background (no compound, no PLA2) was subtracted and the percentage of the positive control (no compound) was calculated.

| inhibitory activity in E. coli PLA2 assay | Substance |
| --- | --- |
| showed inhibitory activity | 1,11,18,28-tetracarboxy-2,10,19,27-tetraaza-7,24-bis-(tosyl)aza-3,20-dioxa-[11.11]pyridinophane [compound 34] |
| showed inhibitory activity | 1,11,18,28-tetracarboxy-2,10,19,27-tetraaza-7,22-bis-(tosyl)aza-3,26-dioxa-[11.11]pyridinophane [compound 33] |
